For 31 compounds, TGI results are on record in PubChem BioAssay (NCI).

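Cells were grown in 96-well plates and exposed to each compound for 48 hours at five concentrations; endpoints were interpolated linearly between bracketing concentrations, or set to the highest concentration if not reached. TGI: total growth inhibition.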

The subject of one test is KM20L2 colon. Briefly: NCI tumour cell line growth inhibition, 48 h.
Consider `O=c1cc(-c2ccccc2)oc2cc(OCCCOc3ccc4c(=O)cc(-c5ccccc5)oc4c3)ccc12`, for which the TGI was > 100 µM.

Another test deals with LXFL 529 NSCLC. Put plainly: NCI tumour cell line growth inhibition, 48 h.
For the compound `CCN1c2ccccc2C(C(SC)S(=O)(=O)c2ccc(C)cc2)c2c1[nH]c(=O)n(C)c2=O` (stereo not given), the TGI was > 100 µM. On the same count and under the same terms, under `COc1ccc(S(=O)(=O)NNS(C)(=O)=O)cc1` stands > 100 µM; under `CC(=O)OC1COC(n2ccc3cc(Br)c([N+](=O)[O-])cc32)C(OC(C)=O)C1OC(C)=O` (stereo not given), > 100 µM; under `CSc1nc(NC2OCC(OC(C)=O)C(OC(C)=O)C2OC(C)=O)c(N=CC=Nc2c(NC3OCC(OC(C)=O)C(OC(C)=O)C3OC(C)=O)nc(SC)[nH]c2=O)c(=O)[nH]1` (stereo not given), > 100 µM. As to `Cn1cnc([N+](=O)[O-])c1Sc1nc2ccccc2[nH]1`, the TGI turned out to be 20.1 µM. On to `COc1cc2c(c(OC)c1OC)-c1ccc(OC)c(=O)cc1C(NC(=O)c1ccc(N=[N+]=[N-])cc1)CC2` (stereo not given), for which the TGI was > 47.2 µM. `CCCCCCCCC/C=C1\CCC(CN2CCOCC2)C1=O` (stereo not given) gave a TGI of 2.95 µM.

`CCCCCCN(CCCCCC)C(=O)Cc1c2n(c3ccccc13)Cc1ccccc1-2`: the TGI is > 100 µM.

For `C/C(=N\NC(=S)NC(CCC(=O)O)C(=O)O)c1ccccn1` (stereo not given), the TGI was > 100 µM. With `Brc1ccccc1C1SCc2nc3ccccc3n21` (stereo not given), the TGI came out at 77.9 µM. Turning to `O=C(/C=C\c1ccc(Cl)c(Cl)c1)c1ccc(Cl)cc1Cl`, the TGI is 21.2 µM.

With `CCOC(=O)C(=C=C=C(c1ccccc1)c1ccccc1)C(=O)OCC`, the TGI amounted to 31.4 µM.

For `Cn1c2ccccc2c2cc(-c3ccccc3)c3c(c21)C(=O)c1ccccc1C3=O`, the TGI is 29.3 µM. On to `OCc1ccc(-c2ccc(-c3ccc(CO)s3)o2)s1`, for which the TGI was determined as 0.0435 µM. Same read-out and setting: under `c1ccc(COc2cccc3ccc[n+](Cc4ccccc4)c23)cc1` stands 20.3 µM; under `CN(C)c1ccc(/C=C(\NC(=O)c2ccccc2)c2nc3ncncc3[nH]2)cc1`, > 100 µM; under `CC1=CC(O)(c2ccc(-c3ccccc3Cl)cc2)OC1=O` (stereo not given), > 100 µM. Same read-out and setting: the result for `CCOC(=O)CC(=O)ON(C)C(C)=O` reads > 100 µM; that for `CCc1cc(Cc2cc(CC)c(NC(=O)C(=O)Cc3ccccn3)c(CC)c2Cl)c(Cl)c(CC)c1NC(=O)C(=O)Cc1ccccn1`, > 100 µM.

For `CC(C)OP(=O)(OC(C)C)C(=NCCN=C(NNc1ccc([N+](=O)[O-])cc1)P(=O)(OC(C)C)OC(C)C)NNc1ccc([N+](=O)[O-])cc1`, the TGI is > 100 µM. As to `COC(OC)C(C)CC(=O)N(C)C` (stereo not given), the TGI is > 100 µM. For `O=S1(=O)OCCOS(=O)(=O)C1Br`, the TGI was > 100 µM.

`CC(C)=Cc1cc(C(=O)Nc2ccc(Cl)c(Cl)c2)nc(N)n1`: the TGI is > 100 µM. With `C#CC1(O)CCC2C3CCc4cc(Oc5nc(F)nc(-c6c7ccccc7c7sc8ccccc8n67)n5)ccc4C3CC[C@@]21C` (stereo not given in full), the TGI was > 100 µM. `CC(=O)/C(=C\c1cccc([N+](=O)[O-])c1)C(=O)Nc1ccccc1C`: the TGI is > 100 µM.

For the compound `Clc1ccc(C(c2ccc(Cl)cc2)c2ccccn2)cc1`, the TGI turned out to be 35.3 µM. For the compound `C[Si](C)(C)C1(Sc2ccccc2)SCCCS1`, the TGI is > 100 µM. Compound `CC(C)(C)OC(=O)N[C@H]1CC2(C=C(Cl)C(=O)C(Cl)=C2)OC1=O` gave a TGI of 23.8 µM. In the case of `O=c1cc(-c2ccccc2)oc2cc(OCCCOc3ccc4c(=O)cc(-c5ccccc5)oc4c3)ccc12`, the TGI was > 100 µM.

The test system of the next test is M19-MEL melanoma. Briefly: NCI tumour cell line growth inhibition, 48 h.
Take `CCOC(=O)NC(=O)c1cn(CCCO)c(=O)[nH]c1=O`: the TGI is > 100 µM. On to `CCN1c2ccccc2C(C(SC)S(=O)(=O)c2ccc(C)cc2)c2c1[nH]c(=O)n(C)c2=O` (stereo not given), for which the TGI is > 100 µM. As to `COc1ccc(S(=O)(=O)NNS(C)(=O)=O)cc1`, the TGI is > 100 µM.

Turning to `Nc1ncnc2c1nnn2C1OC(CO)C(O)C1O` (stereo not given), the TGI came out at 39.2 µM.

Turning to `CC(=O)OC1COC(n2ccc3cc(Br)c([N+](=O)[O-])cc32)C(OC(C)=O)C1OC(C)=O` (stereo not given), the TGI is > 100 µM. Turning to `CSc1nc(NC2OCC(OC(C)=O)C(OC(C)=O)C2OC(C)=O)c(N=CC=Nc2c(NC3OCC(OC(C)=O)C(OC(C)=O)C3OC(C)=O)nc(SC)[nH]c2=O)c(=O)[nH]1` (stereo not given), the TGI was > 100 µM. On the same count and under the same terms, under `Cn1cnc([N+](=O)[O-])c1Sc1nc2ccccc2[nH]1` stands 29.7 µM; under `COc1cc2c(c(OC)c1OC)-c1ccc(OC)c(=O)cc1C(NC(=O)c1ccc(N=[N+]=[N-])cc1)CC2` (stereo not given), > 73.2 µM. In turn, `CCCCCCCCC/C=C1\CCC(CN2CCOCC2)C1=O` (stereo not given) displayed a TGI of 10.4 µM. Regarding `CCCCCCN(CCCCCC)C(=O)Cc1c2n(c3ccccc13)Cc1ccccc1-2`, the TGI is > 100 µM. On the same count and under the same terms, under `C/C(=N\NC(=S)NC(CCC(=O)O)C(=O)O)c1ccccn1` (stereo not given) stands > 100 µM. As for `Brc1ccccc1C1SCc2nc3ccccc3n21` (stereo not given), the TGI is 34.8 µM. The same measure, in the same setting: the result for `O=C(/C=C\c1ccc(Cl)c(Cl)c1)c1ccc(Cl)cc1Cl` reads 81.1 µM. The same measure, in the same setting: under `CCOC(=O)C(=C=C=C(c1ccccc1)c1ccccc1)C(=O)OCC` stands 37.7 µM; under `Cn1c2ccccc2c2cc(-c3ccccc3)c3c(c21)C(=O)c1ccccc1C3=O`, 6.47 µM; under `OCc1ccc(-c2ccc(-c3ccc(CO)s3)o2)s1`, > 100 µM. For the compound `c1ccc(COc2cccc3ccc[n+](Cc4ccccc4)c23)cc1`, the TGI came out at 16.3 µM.

Take `CN(C)c1ccc(/C=C(\NC(=O)c2ccccc2)c2nc3ncncc3[nH]2)cc1`: the TGI was > 100 µM. In the case of `CC1=CC(O)(c2ccc(-c3ccccc3Cl)cc2)OC1=O` (stereo not given), the TGI was > 100 µM. Take `CCOC(=O)CC(=O)ON(C)C(C)=O`: the TGI was > 100 µM.
